These results are taken from patent US20260041640A1 (INCYCLIX BIO, LLC, priority 2023, published 2026).

Molecules are shown by their SMILES. Like-named read-outs stand apart in the source and are kept apart here. Marks after values point to notes of the source that are not given here.

One data set has as its system Ovcar-3. Particulars: BLU-222: based on Ovcar-3 cell cycle data (maximum G1 arrest); read-out: Cellular IC50; cited from earlier work.
Data set [1] can be described thus: Published human plasma PK of BLU-222 and PF-07104091 (estimated from 2023 ASCO presentations). In kind it is in vivo. Particulars: for Cmax to Cmin Ratio: estimated from published human results. An excerpt: This is under the assumption that off-target toxicity is driven by Cmax and efficacy is driven by time above therapeutic threshold (Table 5).
The next data set has as its system CCNE1-amplified cancers. Particulars: BID dosing; cited from earlier work.
For data set [2] the following is noted: phase 1/2 trial, advanced solid tumors; cited from earlier work.
Data set [3] addresses T1, CDK2/cyclin E (Homo sapiens, UniProt P24941). Particulars: biochemical; read-out: Target IC50 CDK2/cyclin E; cited from earlier work.
Data set [4] has as its target T1, CDK2/cyclin E. Particulars: intracellular; read-out: Nanobret IC50 CDK2/cyclin E; cited from earlier work.
The conditions of data set [5]: cited from earlier work.
For data set [6] the following is noted: treatment-related AEs, cited from earlier work.
[7] abbreviates: plasma, 400 mg BID, estimated from published graph.
Where [8] appears, read: plasma, 600 mg BID, estimated from published graph.

As to `FC(F)Oc1cc(Nc2cnc3cnn(CC4CCOCC4)c3n2)n[nH]1` [BLU-222], the IC50 with Ovcar-3 is > 100 nM; on CDK2/cyclin E [3], 2.6 nM; at CDK2/cyclin E [4] it was 17.7 nM. Besides, the “Cmax to Cmin Ratio” value in data set [1] (400 mg BID) is 9.3; in data set [1] (600 mg BID), 22. For the same compound, in the data set on CCNE1-amplified cancers, the “In Vivo efficacy (efficacious dose)” value is recorded as 100 mg/kg mg/kg BID. Further, in data set [2], the “ocular adverse events (AEs) affecting vision, incidence” value is recorded as 19%. The “ocular adverse events (AEs) affecting vision, patients” value in data set [2] is listed as 5 patients. For the same compound, the values for the C12 hr in data set [5] (setting [7]) and in data set [5] (setting [8]) were 100* ng/mL and 120* ng/mL, respectively. Further, the Cmax was 927* ng/mL in data set [5] (setting [7]) and 2639* ng/mL in data set [5] (setting [8]).

Consider `COCc1cc(C(=O)Nc2cc([C@H]3CC[C@@H](OC(=O)NC(C)C)C3)[nH]n2)n(C)n1` [PF-07104091], for which, in data set [6] (Grade 3), the anemia is reported as 8.6%, the diarrhea was 8.6%, the fatigue is reported as 20.0% and the nausea was 14.3%. In data set [6] (Grade 3), the vomiting was 2.9%. Moreover, in data set [6] (all grades), the anemia is given as 45.7%, the diarrhea was 48.6%, the fatigue is listed as 45.7% and the nausea was 77.1%. The vomiting in data set [6] (all grades) was 48.6%. The IC50 in the data set with Ovcar-3 is < 100 nM. Also, in data set [1] (300 mg BID, estimated using Cmax of 2000 ng/mL and t1/2 of 2-3 hours), the “C12 hr (Cmin at 12 hours)” value is ~31-125* ng/mL. Besides, the concentration at 12 h in data set [1] (human, 300 mg, read-out: C12 hr (Cmin at 12 hours)) was 31.2 to 125 ng/mL. In addition, in the data set on CCNE1-amplified cancers, the “In Vivo efficacy (efficacious dose)” value is ≥ 100 mg/kg BID. In addition, in data set [5] (human, plasma), the t1/2 was 2 to 3 h. In addition, the “MTD and monotherapy recommended dose for expansion (RDE)” value in data set [5] (human) is listed as 300 mg BID. Further, the Cmax in data set [5] (plasma, 300 mg BID, estimated from 2023 ASCO presentation) is reported as ~2000* ng/mL.
